Test results taken from ChEMBL document CHEMBL4507292 (2021).

Tests used:
[1] = biological target: Histamine H3 receptor (Homo sapiens) (UniProt Q9Y5N1); details: Compound concentration 10.0 uM
[2] = biological target: Death-associated protein kinase 3 (Homo sapiens) (UniProt O43293); details: Compound concentration 1000.0 nM
[3] = biological target: RAC-gamma serine/threonine-protein kinase (Homo sapiens) (UniProt Q9Y243); details: Compound concentration 1000.0 nM
[4] = biological target: Phosphorylase b kinase gamma catalytic chain, skeletal muscle/heart isoform (Homo sapiens) (UniProt Q16816); details: Compound concentration 1000.0 nM
[5] = biological target: Receptor-interacting serine/threonine-protein kinase 2 (Homo sapiens) (UniProt O43353); details: Compound concentration 1000.0 nM
[6] = biological target: Mast/stem cell growth factor receptor Kit (Homo sapiens) (UniProt P10721); details: Compound concentration 1000.0 nM
Mast/stem cell growth factor receptor Kit (Homo sapiens), sequence (P10721 whole entry): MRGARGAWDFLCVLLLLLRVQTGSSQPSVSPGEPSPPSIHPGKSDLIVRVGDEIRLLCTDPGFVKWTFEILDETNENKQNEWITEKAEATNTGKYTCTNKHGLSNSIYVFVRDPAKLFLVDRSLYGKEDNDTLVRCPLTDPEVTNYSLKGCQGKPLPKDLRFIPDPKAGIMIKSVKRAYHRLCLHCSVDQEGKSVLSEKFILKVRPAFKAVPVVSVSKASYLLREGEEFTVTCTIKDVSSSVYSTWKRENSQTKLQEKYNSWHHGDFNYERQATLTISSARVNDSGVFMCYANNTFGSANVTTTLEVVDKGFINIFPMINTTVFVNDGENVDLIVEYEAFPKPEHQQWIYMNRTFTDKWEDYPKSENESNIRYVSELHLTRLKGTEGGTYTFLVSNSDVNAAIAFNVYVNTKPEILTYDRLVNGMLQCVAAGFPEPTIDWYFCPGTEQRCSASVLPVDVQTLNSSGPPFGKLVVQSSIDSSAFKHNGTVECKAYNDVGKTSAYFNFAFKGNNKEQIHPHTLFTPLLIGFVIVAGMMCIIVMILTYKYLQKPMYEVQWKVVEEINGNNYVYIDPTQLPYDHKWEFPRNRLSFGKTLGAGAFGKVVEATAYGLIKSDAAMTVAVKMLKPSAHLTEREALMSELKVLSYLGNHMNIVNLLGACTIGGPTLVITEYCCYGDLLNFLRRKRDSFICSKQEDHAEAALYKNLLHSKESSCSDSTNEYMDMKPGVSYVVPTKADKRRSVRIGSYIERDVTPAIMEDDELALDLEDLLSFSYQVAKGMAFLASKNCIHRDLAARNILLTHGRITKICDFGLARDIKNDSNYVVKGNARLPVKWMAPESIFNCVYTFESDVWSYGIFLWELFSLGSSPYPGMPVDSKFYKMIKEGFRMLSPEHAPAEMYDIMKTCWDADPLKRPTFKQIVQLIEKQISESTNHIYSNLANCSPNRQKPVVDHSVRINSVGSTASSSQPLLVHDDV

[7] = biological target: Vascular endothelial growth factor receptor 1 (Homo sapiens) (UniProt P17948); details: Compound concentration 1000.0 nM
[8] = biological target: Serine/threonine-protein kinase PAK 5 (Homo sapiens) (UniProt Q9P286); details: Compound concentration 1000.0 nM
[9] = biological target: Protein kinase C eta type (Homo sapiens) (UniProt P24723); details: Compound concentration 1000.0 nM
Protein kinase C eta type (Homo sapiens), sequence (P24723 whole entry): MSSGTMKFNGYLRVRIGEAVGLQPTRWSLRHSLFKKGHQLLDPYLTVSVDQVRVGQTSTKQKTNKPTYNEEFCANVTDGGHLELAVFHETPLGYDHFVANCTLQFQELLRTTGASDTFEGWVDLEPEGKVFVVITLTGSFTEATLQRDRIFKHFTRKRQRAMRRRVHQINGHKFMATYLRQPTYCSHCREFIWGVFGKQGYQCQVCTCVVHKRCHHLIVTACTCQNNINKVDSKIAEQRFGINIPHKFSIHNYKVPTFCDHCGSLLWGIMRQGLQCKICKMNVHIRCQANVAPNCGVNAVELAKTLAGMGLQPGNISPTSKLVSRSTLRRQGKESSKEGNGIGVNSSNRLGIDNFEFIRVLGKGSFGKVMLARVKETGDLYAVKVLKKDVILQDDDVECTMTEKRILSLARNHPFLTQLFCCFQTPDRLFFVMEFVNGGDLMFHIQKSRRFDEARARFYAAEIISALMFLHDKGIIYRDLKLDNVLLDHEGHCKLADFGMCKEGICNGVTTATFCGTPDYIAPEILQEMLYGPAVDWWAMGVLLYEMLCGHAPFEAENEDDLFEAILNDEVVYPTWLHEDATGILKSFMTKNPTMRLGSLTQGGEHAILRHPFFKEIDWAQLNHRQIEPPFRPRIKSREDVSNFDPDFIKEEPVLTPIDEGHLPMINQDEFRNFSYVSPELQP

[10] = biological target: Serine/threonine-protein kinase Sgk2 (Homo sapiens) (UniProt Q9HBY8); details: Compound concentration 1000.0 nM
[11] = biological target: Ephrin type-A receptor 7 (Homo sapiens) (UniProt Q15375); details: Compound concentration 1000.0 nM
[12] = biological target: Serine/threonine-protein kinase RIO3 (Homo sapiens) (UniProt O14730); details: Compound concentration 1000.0 nM
Serine/threonine-protein kinase RIO3 (Homo sapiens), sequence (O14730 whole entry): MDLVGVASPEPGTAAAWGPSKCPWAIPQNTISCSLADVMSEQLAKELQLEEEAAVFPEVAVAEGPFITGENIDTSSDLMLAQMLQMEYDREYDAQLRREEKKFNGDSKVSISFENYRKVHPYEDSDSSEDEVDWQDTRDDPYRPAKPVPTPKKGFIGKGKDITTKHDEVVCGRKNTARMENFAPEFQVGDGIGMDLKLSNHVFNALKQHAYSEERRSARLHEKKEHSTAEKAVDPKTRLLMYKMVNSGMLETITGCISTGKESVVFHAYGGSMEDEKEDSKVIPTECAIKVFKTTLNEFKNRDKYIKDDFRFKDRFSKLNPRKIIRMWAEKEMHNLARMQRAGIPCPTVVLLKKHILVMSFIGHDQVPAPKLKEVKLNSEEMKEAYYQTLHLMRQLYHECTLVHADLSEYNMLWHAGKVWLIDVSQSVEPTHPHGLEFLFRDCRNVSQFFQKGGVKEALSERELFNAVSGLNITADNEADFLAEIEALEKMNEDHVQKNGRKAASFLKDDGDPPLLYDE

[13] = test system: Mast/stem cell growth factor receptor Kit (Homo sapiens), P10721 [V559D]; details: Compound concentration 1000.0 nM
Mast/stem cell growth factor receptor Kit (Homo sapiens), P10721 [V559D], sequence (P10721 whole entry V559D, the tested form may be a part): as the sequence (P10721 whole entry) above, with V559D counted along it

[14] = biological target: Phosphatidylinositol 3-kinase C2 domain-containing subunit gamma (Homo sapiens) (UniProt O75747); details: Compound concentration 1000.0 nM
[15] = biological target: Macrophage colony-stimulating factor 1 receptor (Homo sapiens) (UniProt P07333); details: Compound concentration 1000.0 nM
[16] = biological target: Serine/threonine-protein kinase PAK 2 (Homo sapiens) (UniProt Q13177); details: Compound concentration 1000.0 nM
Serine/threonine-protein kinase PAK 2 (Homo sapiens), sequence (Q13177 whole entry): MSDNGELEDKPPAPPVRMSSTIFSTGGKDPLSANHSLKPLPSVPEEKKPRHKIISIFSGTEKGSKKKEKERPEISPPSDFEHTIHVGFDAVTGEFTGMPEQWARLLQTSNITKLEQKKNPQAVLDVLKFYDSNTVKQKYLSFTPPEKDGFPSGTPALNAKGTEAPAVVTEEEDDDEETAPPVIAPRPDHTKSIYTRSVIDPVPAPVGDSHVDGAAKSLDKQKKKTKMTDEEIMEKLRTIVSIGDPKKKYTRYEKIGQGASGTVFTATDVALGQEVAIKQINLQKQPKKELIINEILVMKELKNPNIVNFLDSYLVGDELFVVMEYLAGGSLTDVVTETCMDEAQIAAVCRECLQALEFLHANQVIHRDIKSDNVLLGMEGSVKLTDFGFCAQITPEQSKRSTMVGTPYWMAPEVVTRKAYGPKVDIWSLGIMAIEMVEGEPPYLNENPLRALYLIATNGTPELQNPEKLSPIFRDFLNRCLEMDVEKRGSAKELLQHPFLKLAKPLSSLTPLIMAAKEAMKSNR

[17] = biological target: Calcium/calmodulin-dependent protein kinase type II subunit beta (Homo sapiens) (UniProt Q13554); details: Compound concentration 1000.0 nM
[18] = test system: Receptor-type tyrosine-protein kinase FLT3 (Homo sapiens), P36888 [UNDEFINED MUTATION]; details: Compound concentration 1000.0 nM
[19] = test system: Phosphatidylinositol 4,5-bisphosphate 3-kinase catalytic subunit alpha isoform (Homo sapiens), P42336 [H1047L]; details: Compound concentration 1000.0 nM
Phosphatidylinositol 4,5-bisphosphate 3-kinase catalytic subunit alpha isoform (Homo sapiens), P42336 [H1047L], sequence (P42336 whole entry H1047L, canonical isoform): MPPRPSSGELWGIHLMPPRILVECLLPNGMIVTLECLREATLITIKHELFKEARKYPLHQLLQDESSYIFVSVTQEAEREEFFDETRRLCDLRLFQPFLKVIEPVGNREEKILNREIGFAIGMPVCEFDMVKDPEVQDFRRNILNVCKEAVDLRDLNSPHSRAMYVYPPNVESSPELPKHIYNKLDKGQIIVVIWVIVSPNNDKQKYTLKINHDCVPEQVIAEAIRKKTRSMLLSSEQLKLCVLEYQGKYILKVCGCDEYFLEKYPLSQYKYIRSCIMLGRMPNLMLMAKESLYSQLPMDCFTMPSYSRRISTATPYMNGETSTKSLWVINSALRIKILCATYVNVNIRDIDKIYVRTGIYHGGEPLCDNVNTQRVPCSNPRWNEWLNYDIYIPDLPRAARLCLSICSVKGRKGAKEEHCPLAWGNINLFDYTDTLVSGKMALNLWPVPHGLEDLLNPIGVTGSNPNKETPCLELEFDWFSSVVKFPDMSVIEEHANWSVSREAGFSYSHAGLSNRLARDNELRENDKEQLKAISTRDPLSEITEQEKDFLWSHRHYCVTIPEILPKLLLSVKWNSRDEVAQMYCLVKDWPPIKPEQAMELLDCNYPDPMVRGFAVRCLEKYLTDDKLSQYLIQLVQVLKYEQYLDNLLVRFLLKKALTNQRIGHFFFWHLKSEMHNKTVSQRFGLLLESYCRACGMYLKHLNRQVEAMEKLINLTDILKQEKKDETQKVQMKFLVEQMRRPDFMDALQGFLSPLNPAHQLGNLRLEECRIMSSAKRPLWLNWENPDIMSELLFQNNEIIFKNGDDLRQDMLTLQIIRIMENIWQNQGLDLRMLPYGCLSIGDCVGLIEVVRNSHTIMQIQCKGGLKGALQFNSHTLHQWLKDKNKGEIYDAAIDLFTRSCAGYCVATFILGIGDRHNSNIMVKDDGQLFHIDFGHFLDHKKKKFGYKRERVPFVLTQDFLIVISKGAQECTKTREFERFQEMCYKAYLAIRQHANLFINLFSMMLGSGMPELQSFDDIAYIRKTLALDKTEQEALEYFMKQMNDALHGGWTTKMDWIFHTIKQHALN

[20] = biological target: Mitogen-activated protein kinase kinase kinase 1 (Homo sapiens) (UniProt Q13233); details: Compound concentration 1000.0 nM
[21] = biological target: Serine/threonine-protein kinase Chk2 (Homo sapiens) (UniProt O96017); details: Compound concentration 1000.0 nM
Serine/threonine-protein kinase Chk2 (Homo sapiens), sequence (O96017 whole entry): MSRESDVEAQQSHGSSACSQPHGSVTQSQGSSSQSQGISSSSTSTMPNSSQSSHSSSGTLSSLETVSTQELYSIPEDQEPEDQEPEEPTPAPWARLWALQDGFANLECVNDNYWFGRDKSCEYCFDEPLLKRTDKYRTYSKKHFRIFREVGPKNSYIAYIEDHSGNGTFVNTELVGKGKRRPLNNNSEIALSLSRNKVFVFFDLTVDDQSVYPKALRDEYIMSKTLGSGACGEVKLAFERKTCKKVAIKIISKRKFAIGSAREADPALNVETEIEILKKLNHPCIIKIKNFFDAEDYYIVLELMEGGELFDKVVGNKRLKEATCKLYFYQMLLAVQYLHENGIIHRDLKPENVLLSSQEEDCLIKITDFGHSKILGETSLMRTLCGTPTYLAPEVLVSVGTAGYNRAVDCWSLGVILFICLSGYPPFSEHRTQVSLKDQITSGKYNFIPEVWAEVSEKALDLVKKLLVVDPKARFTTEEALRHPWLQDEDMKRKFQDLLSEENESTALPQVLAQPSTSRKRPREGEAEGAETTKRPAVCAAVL

[22] = biological target: Tyrosine-protein kinase Lck (Homo sapiens) (UniProt P06239); details: Compound concentration 1000.0 nM
[23] = biological target: Serine/threonine-protein kinase Sgk1 (Homo sapiens) (UniProt O00141); details: Compound concentration 1000.0 nM
Serine/threonine-protein kinase Sgk1 (Homo sapiens), sequence (O00141 whole entry): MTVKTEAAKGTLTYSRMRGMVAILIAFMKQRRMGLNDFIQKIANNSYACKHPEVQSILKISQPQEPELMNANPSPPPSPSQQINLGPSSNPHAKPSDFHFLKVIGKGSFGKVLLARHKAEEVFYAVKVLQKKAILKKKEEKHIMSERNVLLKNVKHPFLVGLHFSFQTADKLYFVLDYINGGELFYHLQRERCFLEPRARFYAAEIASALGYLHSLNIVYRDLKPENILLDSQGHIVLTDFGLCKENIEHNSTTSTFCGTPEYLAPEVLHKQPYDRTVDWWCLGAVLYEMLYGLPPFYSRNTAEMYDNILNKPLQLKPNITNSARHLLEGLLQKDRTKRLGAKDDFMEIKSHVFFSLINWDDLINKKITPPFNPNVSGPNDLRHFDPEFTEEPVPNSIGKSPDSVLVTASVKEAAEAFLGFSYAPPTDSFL

[24] = biological target: Dual specificity tyrosine-phosphorylation-regulated kinase 1B (Homo sapiens) (UniProt Q9Y463); details: Compound concentration 1000.0 nM
[25] = biological target: T1, Alpha-2A adrenergic receptor (Homo sapiens) (UniProt P08913); details: Compound concentration 10.0 uM
T1 sequence (whole entry): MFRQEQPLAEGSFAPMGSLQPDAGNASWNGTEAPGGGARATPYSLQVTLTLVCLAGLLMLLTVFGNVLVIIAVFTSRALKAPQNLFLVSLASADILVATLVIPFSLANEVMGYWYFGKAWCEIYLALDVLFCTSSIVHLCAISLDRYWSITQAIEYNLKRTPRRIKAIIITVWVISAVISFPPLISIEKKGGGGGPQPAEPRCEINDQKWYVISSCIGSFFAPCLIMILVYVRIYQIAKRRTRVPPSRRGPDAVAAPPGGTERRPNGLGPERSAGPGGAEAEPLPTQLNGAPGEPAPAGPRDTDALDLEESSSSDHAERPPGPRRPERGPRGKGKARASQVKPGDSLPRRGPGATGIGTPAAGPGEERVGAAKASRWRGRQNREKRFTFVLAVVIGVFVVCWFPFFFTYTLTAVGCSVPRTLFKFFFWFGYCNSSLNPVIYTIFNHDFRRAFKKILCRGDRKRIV

[26] = biological target: Mitogen-activated protein kinase 4 (Homo sapiens) (UniProt P31152); details: Compound concentration 1000.0 nM
[27] = biological target: Serine/threonine-protein kinase ULK2 (Homo sapiens) (UniProt Q8IYT8); details: Compound concentration 1000.0 nM
[28] = biological target: Cyclin-dependent kinase-like 1 (Homo sapiens) (UniProt Q00532); details: Compound concentration 1000.0 nM
[29] = test system: Epidermal growth factor receptor (Homo sapiens), P00533 [UNDEFINED MUTATION]; details: Compound concentration 1000.0 nM
[30] = biological target: Tyrosine-protein kinase ABL2 (Homo sapiens) (UniProt P42684); details: Compound concentration 1000.0 nM
[31] = biological target: Ribosomal protein S6 kinase alpha-5 (Homo sapiens) (UniProt O75582); details: Compound concentration 1000.0 nM
[32] = biological target: Ephrin type-A receptor 5 (Homo sapiens) (UniProt P54756); details: Compound concentration 1000.0 nM
[33] = biological target: Mitogen-activated protein kinase 11 (Homo sapiens) (UniProt Q15759); details: Compound concentration 1000.0 nM
[34] = biological target: Serine/threonine-protein kinase 38-like (Homo sapiens) (UniProt Q9Y2H1); details: Compound concentration 1000.0 nM
[35] = biological target: Activated CDC42 kinase 1 (Homo sapiens) (UniProt Q07912); details: Compound concentration 1000.0 nM

Cc1c(C(=O)O)cc(-c2ccc(C3CCNCC3)cc2)c2ccc(-c3ccc(C(F)(F)F)cc3)cc12 [PPTN-NC]
inactive: inhibition [1] 7.04% | residual activity [2] 100% | residual activity [3] 100% | residual activity [4] 100% | residual activity [5] 100% | residual activity [6] 84% | residual activity [7] 80% | residual activity [8] 98% | residual activity [9] 100% | residual activity [10] 100% | residual activity [11] 100% | residual activity [12] 100% | residual activity [13] 100% | residual activity [14] 100% | residual activity [15] 96% | residual activity [16] 100% | residual activity [17] 100% | residual activity [18] 95% | residual activity [19] 100% | residual activity [20] 100% | residual activity [21] 100% | residual activity [22] 100% | residual activity [23] 100% | residual activity [24] 74% | inhibition [25] 34.8% | residual activity [26] 100% | residual activity [27] 100% | residual activity [28] 82% | residual activity [29] 100% | residual activity [30] 100% | residual activity [31] 100% | residual activity [32] 100% | residual activity [33] 100% | residual activity [34] 100% | residual activity [35] 100%

O=C(O)c1cc(-c2ccc(C3CCNCC3)cc2)c2ccc(-c3ccc(C(F)(F)F)cc3)cc2c1 [PPTN]
inactive: inhibition [1] 0.03% | residual activity [2] 100% | residual activity [3] 100% | residual activity [4] 100% | residual activity [5] 100% | residual activity [6] 99% | residual activity [7] 86% | residual activity [8] 100% | residual activity [9] 100% | residual activity [10] 100% | residual activity [11] 100% | residual activity [12] 100% | residual activity [13] 100% | residual activity [14] 100% | residual activity [15] 85% | residual activity [16] 100% | residual activity [17] 100% | residual activity [18] 100% | residual activity [19] 100% | residual activity [20] 100% | residual activity [21] 100% | residual activity [22] 100% | residual activity [23] 100% | residual activity [24] 88% | inhibition [25] 38.2% | residual activity [26] 100% | residual activity [27] 100% | residual activity [28] 93% | residual activity [29] 100% | residual activity [30] 100% | residual activity [31] 100% | residual activity [32] 97% | residual activity [33] 100% | residual activity [34] 100% | residual activity [35] 100%
